Target: T1, KCNT1 (KNa1.1, Slack) (Homo sapiens, UniProt Q5JUK3)
T1 construct: expressed in transfected cells; host or cells: HEK-TREX (tetracycline-inducible cell line)
T1 sequence (Q5JUK3 1-1230): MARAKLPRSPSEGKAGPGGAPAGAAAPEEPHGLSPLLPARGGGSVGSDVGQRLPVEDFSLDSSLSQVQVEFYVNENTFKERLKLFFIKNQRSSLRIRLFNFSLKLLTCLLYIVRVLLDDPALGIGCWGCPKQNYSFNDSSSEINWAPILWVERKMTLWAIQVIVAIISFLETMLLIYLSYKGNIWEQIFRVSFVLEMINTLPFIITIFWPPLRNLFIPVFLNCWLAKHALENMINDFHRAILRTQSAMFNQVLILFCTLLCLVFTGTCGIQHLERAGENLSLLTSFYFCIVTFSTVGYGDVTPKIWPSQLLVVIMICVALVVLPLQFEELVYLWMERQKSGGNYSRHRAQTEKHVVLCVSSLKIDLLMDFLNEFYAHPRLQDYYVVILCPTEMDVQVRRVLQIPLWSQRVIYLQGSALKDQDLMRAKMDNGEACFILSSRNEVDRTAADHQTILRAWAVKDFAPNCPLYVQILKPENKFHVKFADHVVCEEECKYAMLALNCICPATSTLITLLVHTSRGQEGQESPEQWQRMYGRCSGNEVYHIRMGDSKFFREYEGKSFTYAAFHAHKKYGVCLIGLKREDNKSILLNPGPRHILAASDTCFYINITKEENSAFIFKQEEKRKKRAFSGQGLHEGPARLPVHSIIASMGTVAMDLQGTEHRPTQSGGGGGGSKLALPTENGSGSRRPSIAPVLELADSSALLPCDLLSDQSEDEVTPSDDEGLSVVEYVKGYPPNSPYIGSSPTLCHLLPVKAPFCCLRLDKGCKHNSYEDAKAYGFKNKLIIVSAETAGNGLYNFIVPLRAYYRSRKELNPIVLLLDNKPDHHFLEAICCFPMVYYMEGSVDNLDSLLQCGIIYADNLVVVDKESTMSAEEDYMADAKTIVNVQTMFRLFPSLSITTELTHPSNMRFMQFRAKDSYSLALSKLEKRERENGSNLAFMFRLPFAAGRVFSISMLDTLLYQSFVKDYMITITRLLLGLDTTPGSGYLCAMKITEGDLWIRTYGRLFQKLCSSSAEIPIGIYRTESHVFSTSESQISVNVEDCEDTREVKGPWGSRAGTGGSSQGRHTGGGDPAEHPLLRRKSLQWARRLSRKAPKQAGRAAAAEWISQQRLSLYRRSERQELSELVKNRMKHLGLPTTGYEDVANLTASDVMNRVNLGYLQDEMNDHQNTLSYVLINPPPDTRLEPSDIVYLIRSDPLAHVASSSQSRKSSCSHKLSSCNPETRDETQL
Test: KCNT1-WT-Basal Patch Clamp Assay
Assay type: cell-based
Conditions: tetracycline inducible cell line (HEK-TREX); SyncroPatch 384PE automated patch clamp, perforated patch mode, room temperature, step from -80 mV to 0 mV
Description: KCNT1-WT-Basal—Patch Clamp Assay
Inhibition of KCNT1 (KNa1.1, Slack) was evaluated using a tetracycline inducible cell line (HEK-TREX). Currents were recorded using the SyncroPatch 384PE automated, patch clamp system. Pulse generation and data collection were performed with PatchController384 V1.3.0 and DataController384 V1.2.1 (Nanion Technologies). The access resistance and apparent membrane capacitance were estimated using built-in protocols. Current were recorded in perforated patch mode (10 μM escin) from a population of cells. The cells were lifted, triturated, and resuspended at 800,000 cells/ml. The cells were allowed to recover in the cell hotel prior to experimentation. Currents were recorded at room temperature. The external solution contained the following (in mM): NaCl 105, NMDG 40, KCl 4, MgCl2 1, CaCl2 5 and HEPES 10 (pH=7.4, Osmolarity ˜300 mOsm). The extracellular solution was used as the wash, reference and compound delivery solution. The internal solution contained the following (in mM): NaCl 70, KF 70, KCl 10, EGTA 5, HEPES 5 and Escin 0.01 (pH=7.2, Osmolarity ˜295 mOsm). Escin is made at a 5 mM stock in water, aliquoted, and stored at −20° C. The compound plate was created at 2× concentrated in the extracellular solution. The compound was diluted to 1:2 when added to the recording well. The amount of DMSO in the extracellular solution was held constant at the level used for the highest tested concentration. A holding potential of −80 mV with a 100 ms step to 0 mV was used. Mean current was measured during the step to 0 mV. […] The average mean current from 3 sweeps was calculated and the % inhibition of each compound was calculated. The % Inhibition as a function of the compound concentration was fit with a Hill equation to derive IC50, slope, min and max parameters. If KCNT1 inhibition was less than 50% at the highest tested concentration or if an IC50 could not be calculated, then a percent inhibition was reported in place of the IC50.
In this table, “A” indicates IC50 of less than or equal to 1 μM; “B” indicates inhibition of between 1 μM to 20 μM; and “C” indicates inhibition of greater than or equal to 20 μM.

SMILES	IC50
CC[C@H](NC(=O)C1CCCCC1)c1nc(-c2ccnc(C(F)(F)F)c2)no1 [Compound I-20, (S)—N-(1-(3-(2-(trifluoromethyl)pyridin-4-yl)-1,2,4-oxadiazol-5-yl)propyl)cyclohexanecarboxamide]	≤ 1000 nM
Cc1oncc1C(=O)N[C@@H](C)c1nc(-c2ccnc(C(F)(F)F)c2)no1 [Compound I-21, (S)-5-methyl-N-(1-(3-(2-(trifluoromethyl)pyridin-4-yl)-1,2,4-oxadiazol-5-yl)ethyl)isoxazole-4-carboxamide]	1000 to 20000 nM
C[C@H](NC(=O)c1ccns1)c1nc(-c2ccnc(C(F)(F)F)c2)no1 [Compound I-22, (S)—N-(1-(3-(2-(trifluoromethyl)pyridin-4-yl)-1,2,4-oxadiazol-5-yl)ethyl)isothiazole-5-carboxamide]	1000 to 20000 nM
C[C@H](NC(=O)c1ccno1)c1nc(-c2ccnc(C(F)(F)F)c2)no1 [Compound I-23, (S)—N-(1-(3-(2-(trifluoromethyl)pyridin-4-yl)-1,2,4-oxadiazol-5-yl)ethyl)isoxazole-5-carboxamide]	≥ 20000 nM
C[C@H](NC(=O)c1cccnn1)c1nc(-c2ccnc(C(F)(F)F)c2)no1 [Compound I-24, (S)—N-(1-(3-(2-(trifluoromethyl)pyridin-4-yl)-1,2,4-oxadiazol-5-yl)ethyl)pyridazine-3-carboxamide]	≥ 20000 nM
C[C@H](NC(=O)c1cc2ccc(C(F)(F)F)cc2s1)c1nc(-c2ccnc(C(F)(F)F)c2)no1 [Compound I-25, (S)-6-(trifluoromethyl)-N-(1-(3-(2-(trifluoromethyl)pyridin-4-yl)-1,2,4-oxadiazol-5-yl)ethyl)benzo[b]thiophene-2-carboxamide]	≤ 1000 nM
C[C@H](NC(=O)[C@H]1CC[C@H](C)CC1)c1nc(-c2ccnc(C(F)(F)F)c2)no1 [Compound I-26, trans-4-methyl-N—((S)-1-(3-(2-(trifluoromethyl)pyridin-4-yl)-1,2,4-oxadiazol-5-yl)ethyl)cyclohexane-1-carboxamide]	≤ 1000 nM
C[C@H](NC(=O)[C@H]1CC[C@H](C)CC1)c1nc(-c2ccnc(C3CC3)c2)no1 [Compound I-29, (S)—N-(1-(3-(2-cyclopropylpyridin-4-yl)-1,2,4-oxadiazol-5-yl)ethyl)-4-methylcyclohexane-1-carboxamide]	≤ 1000 nM
CC1CCCC1C(=O)N[C@@H](C)c1nc(-c2ccnc(C(F)(F)F)c2)no1 (stereo partly drawn) [Compound I-30, 2-methyl-N—((S)-1-(3-(2-(trifluoromethyl)pyridin-4-yl)-1,2,4-oxadiazol-5-yl)ethyl)cyclopentane-1-carboxamide]	1000 to 20000 nM
C[C@H](NC(=O)C1(C#N)CC1)c1nc(-c2ccnc(C(F)(F)F)c2)no1 [Compound I-32, (S)-1-cyano-N-(1-(3-(2-(trifluoromethyl)pyridin-4-yl)-1,2,4-oxadiazol-5-yl)ethyl)cyclopropane-1-carboxamide]	≥ 20000 nM
C[C@H](NC(=O)C1(C)CC1)c1nc(-c2ccnc(C(F)(F)F)c2)no1 [Compound I-33, (S)-1-methyl-N-(1-(3-(2-(trifluoromethyl)pyridin-4-yl)-1,2,4-oxadiazol-5-yl)ethyl)cyclopropane-1-carboxamide]	1000 to 20000 nM
C[C@H](NC(=O)[C@H]1CCCC(=O)N1)c1nc(-c2ccnc(C(F)(F)F)c2)no1 [Compound I-34, (R)-6-oxo-N—((S)-1-(3-(2-(trifluoromethyl)pyridin-4-yl)-1,2,4-oxadiazol-5-yl)ethyl)piperidine-2-carboxamide]	≥ 20000 nM
C[C@H](NC(=O)CN1CCCCC1)c1nc(-c2ccnc(C(F)(F)F)c2)no1 [Compound I-35, (S)-2-(piperidin-1-yl)-N-(1-(3-(2-(trifluoromethyl)pyridin-4-yl)-1,2,4-oxadiazol-5-yl)ethyl)acetamide]	≥ 20000 nM
C[C@H](NC(=O)[C@H]1CC[C@@H](C)CC1)c1nc(-c2ccnc(C(F)(F)F)c2)no1 [Compound I-36, cis-4-methyl-N—((S)-1-(3-(2-(trifluoromethyl)pyridin-4-yl)-1,2,4-oxadiazol-5-yl)ethyl)cyclohexane-1-carboxamide]	≤ 1000 nM
Cc1nc(C)c(C(=O)N[C@H](C)c2nc(-c3cccc(F)c3)no2)s1 [Compound I-37, (R)—N-(1-(3-(3-fluorophenyl)-1,2,4-oxadiazol-5-yl)ethyl)-2,4-dimethylthiazole-5-carboxamide]	1000 to 20000 nM
C[C@H](NC(=O)c1nc(-c2ccccc2)nn1C)c1nc(-c2cccc(F)c2)no1 [Compound I-38, (S)—N-(1-(3-(3-fluorophenyl)-1,2,4-oxadiazol-5-yl)ethyl)-1-methyl-3-phenyl-1H-1,2,4-triazole-5-carboxamide]	≥ 20000 nM

Second part, the molecule after the results:

IC50	SMILES
1000 to 20000 nM	Cc1nc(C)c(C(=O)N[C@@H](C)c2nc(-c3cccc(F)c3)no2)s1 [Compound I-39, (S)—N-(1-(3-(3-fluorophenyl)-1,2,4-oxadiazol-5-yl)ethyl)-2,4-dimethylthiazole-5-carboxamide]
1000 to 20000 nM	CCn1nc(C)c(C(=O)N[C@@H](C)c2nc(-c3cccc(F)c3)no2)n1 [Compound I-40, (S)-2-ethyl-N-(1-(3-(3-fluorophenyl)-1,2,4-oxadiazol-5-yl)ethyl)-5-methyl-2H-1,2,3-triazole-4-carboxamide]
≤ 1000 nM	C[C@H](NC(=O)c1ccccc1)c1nc(-c2ccnc(C3CC3)c2)no1 [Compound I-41, (S)—N-(1-(3-(2-cyclopropylpyridin-4-yl)-1,2,4-oxadiazol-5-yl)ethyl)benzamide]
≤ 1000 nM	C[C@H](NC(=O)Cc1ccccc1)c1nc(-c2ccnc(C3CC3)c2)no1 [Compound I-42, (S)—N-(1-(3-(2-cyclopropylpyridin-4-yl)-1,2,4-oxadiazol-5-yl)ethyl)-2-phenylacetamide]
≤ 1000 nM	CC(C)Oc1cc(-c2noc([C@H](C)NC(=O)c3ccccc3)n2)ccn1 [Compound I-43, (S)—N-(1-(3-(2-isopropoxypyridin-4-yl)-1,2,4-oxadiazol-5-yl)ethyl)benzamide]
≤ 1000 nM	CCOc1cc(-c2noc([C@H](C)NC(=O)c3ccccc3)n2)ccn1 [Compound I-44, (S)—N-(1-(3-(2-ethoxypyridin-4-yl)-1,2,4-oxadiazol-5-yl)ethyl)benzamide]
≤ 1000 nM	CCOc1cc(-c2noc([C@H](C)NC(=O)C3CCCC3)n2)ccn1 [Compound I-45, (S)—N-(1-(3-(2-ethoxypyridin-4-yl)-1,2,4-oxadiazol-5-yl)ethyl)cyclopentanecar-boxamide]
≤ 1000 nM	CC(C)Oc1cc(-c2noc([C@H](C)NC(=O)C3CCCC3)n2)ccn1 [Compound I-46, (S)—N-(1-(3-(2-isopropoxypyridin-4-yl)-1,2,4-oxadiazol-5-yl)ethyl)cyclopentane-carboxamide]

Reference: US12583849B2, “KCNT1 inhibitors and methods of use” (Praxis Precision Medicines, Inc., priority 2020, dated 2026)
